What is called mortality is the share of the test organisms that died.

We go through 4 molecules from patent US20220386611A1, “NOVEL HETEROARYL-TRIAZOLE COMPOUNDS AS PESTICIDES” (Bayer Aktiengesellschaft, priority 2019, published 2022).

Common to all, as to type: in vivo
Assay [1] deals with Anopheles funestus strain FUMOZ-R. Nature of the assay: Anopheles funestus test (ANPHFU surface treatment & contact assay). As to conditions: surface concentration 20 mg/m^2, 30 minutes exposure, 24 hours after contact, read-out: efficacy (mortality). As for the experimental part: Anopheles funestus Test (ANPHFU Surface Treatment & Contact Assay)
(§1) Solvent: Aceton+2000 ppm rapeseed oil methyl ester (RME)
In order to produce a sufficient, active ingredient containing solution it is necessary to solve the test compound in the solvent-mix (acetone at 2 mg/ml/RME 2000 ppm). This solution is pipetted onto a glazed tile and after evaporation of the acetone, adult mosquitoes of the species Anopheles funestus strain FUMOZ-R (Hunt et al., Med. Vet. Entomol. 2005 September; 19(3): 271-275) are placed onto the dried surface. The exposure time is 30 minutes. Mortality in percent (%) is determined 24 hours after contact of the insects to the treated surface. 100% mortality means that all tested insects are dead, whereas 0% means that no insect died.

For assay [2], the system named is green peach aphid (Myzus persicae). Nature of the assay: Myzus persicae oral test. As to conditions: 120 h. As for the experimental part: Solvent: 100 parts by weight acetone
To produce a suitable preparation of active compound, 1 part by weight of active compound is mixed with the stated amount of solvent, and the concentrate is diluted with water to the desired concentration. 50 μL compound solution is filled in microtiter plates and 150 μL IPL41 insect medium (33%+15% sugar) is added to obtain a total volume of 200 μL per well. Afterwards the plates are sealed with parafilm through which a mixed population of the green peach aphid (Myzus persicae) can suck on the compound preparation.
(§2) After 5 days mortality in % is determined. 100% means all aphids have been killed and 0% means none of the aphids have been killed.

Assay [3] relates to Aedes aegypti strain MONHEIM. Nature of the assay: Aedes aegypti test (AEDSAE surface treatment & contact assay). As to conditions: 24 hours after contact, read-out: efficacy (mortality); for mortality at 20 mg/m2: surface concentration 20 mg/m^2, 30 minutes exposure. As for the experimental part:
Aedes Aegypti Test (AEDSAE Surface Treatment & Contact Assay)
as §1
In order to produce a sufficient, active ingredient containing solution it is necessary to solve the test compound in the solvent-mix (acetone at 2 mg/ml/RME 2000 ppm). This solution is pipetted onto a glazed tile and after evaporation of the acetone, adult mosquitoes of the species Aedes aegypti strain MONHEIM are placed onto the dried surface. The exposure time is 30 minutes. Mortality in percent (%) is determined 24 hours after contact of the insects to the treated surface. 100% mortality means that all tested insects are dead, whereas 0% means that no insect died.

Assay [4] has as its system Musca domestica strain WHO-N. The assay is described as follows: Musca domestica test (MUSCDO surface treatment & contact assay). As to conditions: 24 hours after contact, read-out: efficacy (mortality). As for the experimental part: Musca domestica Test (MUSCDO Surface Treatment & Contact Assay)
as §1
In order to produce a sufficient, active ingredient containing solution it is necessary to solve the test compound in the solvent-mix (acetone at 2 mg/ml/RME 2000 ppm). This solution is pipetted onto a glazed tile and after evaporation of the acetone, adult flies of the species Musca domestica strain WHO-N are placed onto the dried surface. The exposure time is 30 minutes. Mortality in percent (%) is determined 24 hours after contact of the insects to the treated surface. 100% mortality means that all tested insects are dead, whereas 0% means that no insect died.

Assay [5] deals with fall armyworm larvae (Spodoptera frugiperda). Nature of the assay: Spodoptera frugiperda spray test. The settings on record: in Zea mays, 168 h. As for the experimental part:
Spodoptera frukiperda—Spray Test
(§3) Solvent: 78.0 parts by weight acetone • 1.5 parts by weight dimethylformamide
(§4) Emulsifier: alkylarylpolyglycol ether
(§5) To produce a suitable preparation of active compound, 1 part by weight of active compound is mixed with the stated amount of solvents and is diluted with water, containing an emulsifier concentration of 1000 ppm, to the desired concentration. Further test concentrations are prepared by dilution with emulsifier containing water.
Maize (Zea mays) leaf sections are sprayed with a preparation of the active ingredient of the desired concentration. Once dry, the leaf sections are infested with fall armyworm larvae (Spodoptera frugiperda).
After 7 days mortality in % is determined. 100% means all caterpillars have been killed and 0% means none of the caterpillars have been killed.

The test system of assay [6] is green peach aphid (Myzus persicae). The assay is described as follows: Myzus persicae spray test. As to conditions: foliar, 120 h, after 5 days, Chinese cabbage leaf disks. As for the experimental part: Myzus persicae—spray test
as §3, §4, §5
Chinese cabbage (Brassica pekinensis) leaf disks infected with all instars of the green peach aphid (Myzus persicae), are sprayed with a preparation of the active ingredient of the desired concentration.
as §2

The test system of assay [7] is larvae of the banded cucumber beetle (Diabrotica balteata). The assay is described as follows: Diabrotica balteata spray test. The settings on record: 168 h, 100 g/ha (=32 μg/well), after 7 days, wheat seeds, read-out: efficacy (seedlings grown like untreated, uninfected control). As for the experimental part:
Diabrotica balteata—spray test
Solvent: 78.0 parts by weight of acetone
1.5 parts by weight of dimethylformamide
as §4
To produce a suitable preparation of active compound, 1 part by weight of active compound is mixed with the stated amount of solvent, and the concentrate is diluted with water, containing an emulsifier concentration of 1000 ppm, to the desired concentration. Further test concentrations are prepared by dilution with emulsifier containing water.
Soaked wheat seeds (Triticum aestivum) are placed in a multiple well plate filled with agar and some water and are incubated for 1 day to germinate (5 seeds per well). The germinated wheat seeds are sprayed with a test solution containing the desired concentration of the active ingredient. Afterwards each unit is infected with 10-20 larvae of the banded cucumber beetle (Diabrotica balteata).
After 7 days efficacy in % is determined. 100% means all the seedlings have grown up like in the untreated, uninfected control; 0% means none of the seedlings have grown.

In assay [8] the test system is adult unfed cat fleas (Ctenocephalides felis). The assay is described as follows: Ctenocephalides felis oral test. The settings on record: 48 h. As for the experimental part:
Ctenocephalides felis—Oral Test
(§6) Solvent: dimethyl sulfoxide
To produce a suitable preparation of active compound, 10 mg of active compound are dissolved in 0.5 ml solvent, and the concentrate is diluted with cattle blood to the desired concentration.
Approximately 20 adult unfed cat fleas (Ctenocephalides felis) are placed in flea chambers. The blood chamber, sealed with parafilm on the bottom, are filled with cattle blood supplied with compound solution and placed on the gauze covered top of the flea chamber, so that the fleas are able to suck the blood. The blood chamber is heated to 37° C. whereas the flea chamber is kept at room temperature.
After 2 days mortality in % is determined. 100% means all the fleas have been killed; 0% means none of the fleas have been killed.

The test system of assay [9] is adult cat fleas (Ctenocephalides felis). Nature of the assay: Ctenocephalides felis in-vitro contact test, adult cat flea. The settings on record: after 48 hours, read-out: efficacy (fleas dead or moribund); for pest or weed control at 5 µg/cm2, 500 g/ha: 5 μg/cm^2 (=500 g/ha). As for the experimental part: Ctenocephalides felis—In-Vitro Contact Tests Adult Cat Flea 9 mg compound is solved in 1 mL acetone and diluted with acetone to the desired concentration. 250 μL of the test solution is filled in 25 mL glass test tubes and homogeneously distributed on the inner walls by rotation and tilting on a shaking device (2 h at 30 rpm). With a compound concentration of 900 ppm, an inner surface of 44.7 cm^2 and a homogeneous distribution, a dose of 5 μg/cm^2 is achieved.
After the solvent has evaporated, each test tube is filled with 5-10 adult cat fleas (Ctenocephalidesfelis), closed with a perforated lid and incubated in a lying position at room temperature and relative humidity.
After 48 hours efficacy is determined. The fleas are patted on the ground of the tubes and are incubated on a heating plate at 45-50° C. for at most 5 minutes. Immotile or uncoordinated moving fleas, which are not able to escape the heat by climbing upwards, are marked as dead or moribund.
An efficacy of 100% means all fleas are dead or moribund; 0% means no fleas are dead or moribund.

The test system of assay [10] is adult brown dog ticks (Rhipicephalus sanguineus). The assay is described as follows: Rhipicephalus sanguineus in-vitro contact test with adult brown dog ticks. The settings on record: 5 μg/cm^2 (=500 g/ha), after 48 hours, read-out: efficacy (ticks dead or moribund). As for the experimental part: Rhipicephalus sanguineus—In-Vitro Contact Tests with Adult Brown Dog Ticks
(§7) 9 mg compound is solved in 1 mL acetone and diluted with acetone to the desired concentration. 250 μL of the test solution is filled in 25 mL glass test tubes and homogeneously distributed on the inner walls by rotation and tilting on a shaking device (2 h at 30 rpm). With a compound concentration of 900 ppm, an inner surface of 44.7 cm^2 and a homogeneous distribution, a dose of 5 μg/cm^2 is achieved.
After the solvent has evaporated, each test tube is filled with 5-10 adult brown dog ticks (Rhipicephalus sanguineus), closed with a perforated lid and incubated in a lying position at room temperature and relative humidity. After 48 hours efficacy is determined. The ticks are patted on the ground of the tubes and are incubated on a heating plate at 45-50° C. for at most 5 minutes. Immotile or uncoordinated moving ticks, which are not able to escape the heat by climbing upwards, are marked as dead or moribund.
An efficacy of 100% means all ticks are dead or moribund; 0% means no ticks are dead or moribund.

Assay [11] concerns adult engorged female ticks (Rhipicephalus microplus). The assay is described as follows: Rhipicephalus (Boophilus) microplus injection test. The settings on record: 168 h, after 7 days, read-out: efficacy (infertile eggs); for pest or weed control at 0.004 mg: 4 μg/animal. As for the experimental part: Rhipicephalus (Boophilus) microplus—Injection Test
as §6
To produce a suitable preparation of active compound, 10 mg of active compound are dissolved in 0.5 mL solvent, and the concentrate is diluted with solvent to the desired concentration.
Five adult engorged female ticks (Rhipicephalus microplus) are injected with 1 μL compound solution into the abdomen. The ticks are transferred into replica plates and incubated in a climate chamber.
After 7 days egg deposition of fertile eggs is monitored. Eggs where fertility is not visible are stored in a climate chamber till hatching after about 42 days. An efficacy of 100% means all eggs are infertile; 0% means all eggs are fertile.

The test system of assay [12] is Rhipicephalus microplus larvae (strain Parkhurst, resistant against synthetic pyrethroids). The assay is described as follows: Rhipicephalus (Boophilus) microplus in-vitro contact test, larval cattle tick. As to conditions: 5 μg/cm^2 (=500 g/ha), after 48 hours, read-out: efficacy (larvae dead or moribund). As for the experimental part:
Rhipicephalus (Boophilus) Microplus—In-Vitro Contact Tests Larval Cattle Tick (Strain Parkhurst, Resistant Against Synthetic Pyrethroids)
as §7
After the solvent has evaporated, each test tube is filled with 20-50 cattle tick larvae (Rhipicephalus microplus), closed with a perforated lid and incubated in a horizontal position at 85% relative humidity and 27° C. in an incubator. After 48 hours efficacy is determined. The larvae are patted on the ground of the tubes and negative geotactic behaviour is recorded.
An efficacy of 100% means all larvae are dead or moribund; 0% means no larvae are dead or moribund.

[13] abbreviates: surface concentration 4 mg/m^2, 30 minutes exposure.

Take `CC(NC(=O)c1cc(Cl)cc(OC(F)(F)F)c1)c1nc(Cl)nn1-c1ncccn1` (racemic) [Example I-001, 3-chloro-N-[1-(5-chloro-2-pyrimidin-2-yl-1,2,4-triazol-3-yl)ethyl]-5-(trifluoromethoxy)benzamide]: the mortality at 20 mg/m2 was 80 to 100% in [1]; 80 to 100% in [3]; 80 to 100% in assay [4] (surface concentration 20 mg/m^2, 30 minutes exposure). This molecule registered a mortality at 4 ppm in assay [2] of 100%. Also, the mortality at 4 mg/m2 in assay [3] (setting [13]) and in [4] (setting [13]) was 80 to 100% each time. In addition, the mortality at 100 g/ha in assay [5] is 100%; in [6], 90%. In addition, the pest or weed control at 32 µg/disc, 100 g/ha in assay [7] stood at 100%.

For `CC(NC(=O)c1cc(Br)cc(C(F)(F)F)c1)c1nc(Br)nn1-c1ncccn1` (racemic) [Example I-009, 3-bromo-N-[1-(5-bromo-2-pyrimidin-2-yl-1,2,4-triazol-3-yl)ethyl]-5-(trifluoromethyl)benzamide], in [8], the mortality at 100 ppm came out at 100%. Also, the pest or weed control at 5 µg/cm2, 500 g/ha stood at 80% in [9] and 100% in assay [10]. Further, the mortality at 4 ppm in [2] worked out at 100%. Besides, in assay [11], the pest or weed control at 0.004 mg stood at 100%. Moreover, the mortality at 100 g/ha in [5] came to 67%; in assay [6], 70%. In addition, in assay [7], the pest or weed control at 32 µg/disc, 100 g/ha stood at 100%. Besides, the pest or weed control at 5 µg/cm2 in assay [12] came to 100%.

Turning to `CC(NC(=O)c1cc(Cl)cc(C(F)(F)F)c1)c1nc(Br)nn1-c1ccc(Cl)cn1` (racemic) [Example I-018, N-[1-[5-bromo-2-(5-chloro-2-pyridyl)-1,2,4-triazol-3-yl]ethyl]-3-chloro-5-(trifluoromethyl)benzamide], the mortality at 20 mg/m2 in assay [1] and in assay [3] was 80 to 100% throughout. Moreover, the pest or weed control at 0.004 mg in [11] was found to be 80%. For the same molecule, the pest or weed control at 0.02 mg in [11] (20 μg/animal) came to 100%. In assay [5], this molecule showed a mortality at 100 g/ha of 83%. For the same molecule, the pest or weed control at 32 µg/disc, 100 g/ha in assay [7] came to 100%. Further, in assay [12], the pest or weed control at 5 µg/cm2 was 80%.

As to `CC(NC(=O)c1cc(Br)cc(OC(F)(F)F)c1)c1nc(I)nn1-c1ncccn1` (racemic) [Example I-020, 3-bromo-N-[1-(5-iodo-2-pyrimidin-2-yl-1,2,4-triazol-3-yl)ethyl]-5-(trifluoromethoxy)benzamide], the mortality at 100 ppm in assay [8] worked out at 100%. Besides, the pest or weed control at 1 µg/cm2, 100 g/ha in assay [9] (1 μg/cm^2 (=100 g/ha)) was found to be 100%. The pest or weed control at 5 µg/cm2, 500 g/ha in assay [9] and in assay [10] was 100% in each case. The mortality at 4 ppm in assay [2] came out at 100%. Besides, the mortality at 100 g/ha worked out at 100% in assay [5] and 90% in [6]. The pest or weed control at 32 µg/disc, 100 g/ha in assay [7] is 100%. Also, the pest or weed control at 5 µg/cm2 in [12] was determined as 100%.
